We go through two compounds from ChEMBL document CHEMBL1148765, “Design, synthesis, and estrogenic activity of a novel estrogen receptor modulator--a hybrid structure of 17beta-estradiol and vitamin E in hippocampal neurons” (J Med Chem, 2007).

Structures are written as SMILES.

For one experiment, the species on record is Homo sapiens. The experiment in a line: Selectivity for ERbeta over ERalpha.
Experiment [1] in a line: Effect on glutamate-induced neurotoxicity in rat hippocampal neurons assessed increase in neuronal membrane integrity at 1 nM after 48 hrs relative to glutamate. The class given is functional, Hippocampus, Hippocampal neurone.
The nature of experiment [2]: Effect on glutamate-induced neurotoxicity in rat hippocampal neurons assessed increase in neuronal membrane integrity at 1000 nM after 48 hrs relative to glutamate. It counts as functional, Hippocampus, Hippocampal neurone.
The target of another experiment is Estrogen receptor beta (Homo sapiens, UniProt Q92731).
Estrogen receptor beta, sequence (Q92731 whole entry): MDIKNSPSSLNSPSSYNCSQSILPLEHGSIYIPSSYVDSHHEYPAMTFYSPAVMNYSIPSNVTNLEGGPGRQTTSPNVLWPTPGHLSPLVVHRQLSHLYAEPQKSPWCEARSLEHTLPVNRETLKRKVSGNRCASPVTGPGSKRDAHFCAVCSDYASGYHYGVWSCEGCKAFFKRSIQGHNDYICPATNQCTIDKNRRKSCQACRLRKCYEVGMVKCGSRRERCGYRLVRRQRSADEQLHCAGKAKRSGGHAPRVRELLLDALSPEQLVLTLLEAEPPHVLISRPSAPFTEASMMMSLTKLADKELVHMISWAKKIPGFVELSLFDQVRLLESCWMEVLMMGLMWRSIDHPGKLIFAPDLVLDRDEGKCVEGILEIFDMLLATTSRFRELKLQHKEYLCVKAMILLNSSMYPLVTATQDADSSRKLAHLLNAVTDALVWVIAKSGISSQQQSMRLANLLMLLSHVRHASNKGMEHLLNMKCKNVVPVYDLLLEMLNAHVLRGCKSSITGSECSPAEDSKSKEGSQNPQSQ
A short description of experiment [3]: Effect on glutamate-induced neurotoxicity in rat hippocampal neurons assessed increase in neuronal membrane integrity at 100 nM after 48 hrs relative to glutamate. It counts as functional, Hippocampus, Hippocampal neurone.
The nature of experiment [4]: Increase in ERK2 phosphorylation in rat hippocampal neurons at 100 nM after 30 mins by Western immunoblotting relative to control. The class given is functional, Hippocampus, Hippocampal neurone.
Experiment [5] is described as follows: Increase in spinophilin expression in rat hippocampal neurons at 10 nM after 48 hrs by Western immunoblotting relative to control. It counts as functional, Hippocampus, Hippocampal neurone. On the technique in general: Immunoblotting shows a protein as a band on a membrane.
Experiment [6] in a line: Effect on glutamate-induced loss of metabolic viability in rat hippocampal neurons assessed as increase in neuronal viability at 1000 nM after 48 hrs relative to glutamate. The class given is functional, Hippocampus, Hippocampal neurone.
In another experiment the test system is Hippocampal neurone. In words: Increase in Akt phosphorylation in rat hippocampal neurons at 100 nM after 30 mins by Western immunoblotting relative to control. The class given is tissue-based. Particulars: Hippocampus.
A short description of experiment [7]: Increase in Bcl-XL expression in rat hippocampal neurons at 10 nM after 48 hrs by Western immunoblotting relative to control. It counts as functional, Hippocampus, Hippocampal neurone.
The target of the next experiment is T1, Estrogen receptor (Homo sapiens, UniProt P03372).
T1 sequence (P03372 whole entry): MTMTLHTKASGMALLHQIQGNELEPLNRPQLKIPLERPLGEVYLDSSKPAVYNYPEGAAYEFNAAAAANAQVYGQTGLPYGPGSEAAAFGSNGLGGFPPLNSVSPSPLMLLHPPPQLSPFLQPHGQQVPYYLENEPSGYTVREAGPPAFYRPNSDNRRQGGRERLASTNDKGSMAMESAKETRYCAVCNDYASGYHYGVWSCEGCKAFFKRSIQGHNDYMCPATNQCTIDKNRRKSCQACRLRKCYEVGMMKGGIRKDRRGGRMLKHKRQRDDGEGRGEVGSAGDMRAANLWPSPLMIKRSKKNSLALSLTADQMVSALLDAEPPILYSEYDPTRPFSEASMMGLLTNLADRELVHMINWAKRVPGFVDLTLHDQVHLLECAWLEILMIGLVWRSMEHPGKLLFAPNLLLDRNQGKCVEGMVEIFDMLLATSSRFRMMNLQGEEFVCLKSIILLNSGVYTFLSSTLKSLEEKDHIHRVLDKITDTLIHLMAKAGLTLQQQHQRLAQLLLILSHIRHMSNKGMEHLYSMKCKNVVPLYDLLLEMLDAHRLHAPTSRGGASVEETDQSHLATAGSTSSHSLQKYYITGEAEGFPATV

Experiment [8] in a line: Effect on glutamate-induced loss of metabolic viability in rat hippocampal neurons assessed as increase in neuronal viability at 10 nM after 48 hrs relative to glutamate. The class given is functional, Hippocampus, Hippocampal neurone.
The nature of experiment [9]: Increase in Bcl2 expression in rat hippocampal neurons at 10 nM after 48 hrs by Western immunoblotting relative to control. The class given is functional, Hippocampus, Hippocampal neurone.
Experiment [10] can be described thus: Effect on glutamate-induced loss of metabolic viability in rat hippocampal neurons assessed as increase in neuronal viability at 100 nM after 48 hrs relative to glutamate. The class given is functional, Hippocampus, Hippocampal neurone.
A short description of experiment [11]: Effect on glutamate-induced neurotoxicity in rat hippocampal neurons assessed increase in neuronal membrane integrity at 10 nM after 48 hrs relative to glutamate. It counts as functional, Hippocampus, Hippocampal neurone.
The nature of experiment [12]: Effect on glutamate-induced loss of metabolic viability in rat hippocampal neurons assessed as increase in neuronal viability at 1 nM after 48 hrs relative to glutamate. The class given is functional, Hippocampus, Hippocampal neurone.

Description for Estrogen receptor beta: Binding affinity to human ERbeta

In the case of `Oc1ccc(/C=C/c2cc(O)cc(O)c2)cc1`, the Selectivity ratio in the experiment listed under Homo sapiens was 48.
By IC50 is commonly meant the point on the concentration scale where inhibition reaches its midpoint. For the compound `CC(C)CCC[C@@H](C)CCC[C@@H](C)CCC[C@@H]1Cc2cc(O)ccc2[C@H]2CC[C@]3(C)[C@@H](O)CC[C@H]3[C@H]12`, the Activity in [1] is 38.6%; in experiment [2] it was 59.1%; in [3], 67%; in experiment [4] it was 46.3%; in experiment [5], 61.7%; in experiment [6] it was 25.6%. Further, the Activity in the experiment on Hippocampal neurone was determined as 139%; in experiment [7], 58%; in experiment [8], 9.3%; in experiment [9], 23.4%; in experiment [10] it was 28.4%; in experiment [11], 44.1%. Moreover, in experiment [12], the Activity came to 2.7%. For the same compound, the IC50 on Estrogen receptor beta was found to be 0.267 µM; against Estrogen receptor it was 0.193 µM.
